Earlier results, collected in US20160271121A1, “ANTIFUNGAL COMBINATION THERAPY” (Gavis Pharmaceuticals, priority 2015, published 2016).

Experiments:
onychomycosis = conditions: 48 weeks of topical efinaconazole
reference strains = conditions: in vitro, versus other antifungals

C=C1CCN([C@H](C)[C@](O)(Cn2cncn2)c2ccc(F)cc2F)CC1 [Efinaconazole, (2R,3R)-2-(2,4-difluorophenyl)-3-(4-methylenepiperidin-1-yl)-1-(1H-1,2,4-triazol-1-yl)butan-2-ol]
mycological cure rate compared with other antifungal agents (onychomycosis): more than that for 48 weeks of topical ciclopirox and comparable to 12 weeks of oral itraconazole | potency in broth dilution tests (reference strains): more potent than terbinafine, ciclopirox, itraconazole, and amorolfine
